What was measured:
Format in all cases: in vivo, human
[1] = test system: patient with a tendinitis due to the practice of bowling sport; assay: Topical treatment of tendinitis due to bowling (Example 6); details: 6% (w/w) in composition 3
Procedure: Glucosamine or one or more of its derivatives was added in the appropriate amount to one of the following formulations. The compositions thus obtained were tested as described in the Examples. All percentages are by weight (w/w) unless otherwise indicated.
A patient with a tendinitis due to the practice of bowling sport was treated 2 days after the onset of pain with composition 3 containing 6% (w/w) N-acetyl D-glucosamine. Pain relief occurred 25 seconds later.

[2] = test system: patient suffering from sore throat caused by β-hemolytic streptococci; assay: Spray treatment of a patient with sore throat (Example 1)
Procedure: Glucosamine or one or more of its derivatives was added in the appropriate amount to one of the following formulations. The compositions thus obtained were tested as described in the Examples. All percentages are by weight (w/w) unless otherwise indicated. A patient suffering from sore throat caused by β-hemolytic streptococci was treated with a water solution (formulation 1) of N-acetyl-glucosamine (8% w/w). The solution was sprayed into the mouth during 10 seconds in order to treat the infected area. Pain relief occurred already 20 seconds after application and lasted for at least 1,5 hour. 12 hours later the same patient was treated with spray containing glucosamine HCl (9% w/w and 20% glycerol and 10% alcohol in water). Pain relief occurred again very quickly, 36 seconds after, application and lasted for at least 2 hours.

[3] = test system: child suffering from diaper allergy; assay: Topical treatment of diaper allergy (Example 5); details: 5% (w/w) in composition 2; applications for 1 week, 3 times a day; male, 8 months
Procedure: Glucosamine or one or more of its derivatives was added in the appropriate amount to one of the following formulations. The compositions thus obtained were tested as described in the Examples. All percentages are by weight (w/w) unless otherwise indicated. […]

[4] = test system: patient with allergy for cats; assay: Topical treatment of itching from cat allergy (Example 7); details: 5% (w/w) in composition 3
Procedure: Glucosamine or one or more of its derivatives was added in the appropriate amount to one of the following formulations. The compositions thus obtained were tested as described in the Examples. All percentages are by weight (w/w) unless otherwise indicated. A patient with allergy for cats (person) was confronted with a stroked cat (2 years old) in a closed room (6 m×4 m×3 m) during 10 minutes. 8 minutes later itching started all over the forehead and progressed after 15 minutes to the nose (external×internal). The patient was treated on the left side of the forehead with composition 3 and on the right side of the forehead with composition 3 containing 5% (w/w) glucosamine HCl. Itching completely disappeared after 45 seconds on the right side while there was still itching on the left side. The nose was also treated inside and outside with the active cream. Itching decreased drastically already after 50 seconds.

[5] = test system: patient suffering from arthritis urica; assay: Topical treatment of arthritis urica (Example 9); details: 9% (w/w) in composition 2; right foot, 4 successive treatments with an interval of 10 minutes; person
Procedure: Glucosamine or one or more of its derivatives was added in the appropriate amount to one of the following formulations. The compositions thus obtained were tested as described in the Examples. All percentages are by weight (w/w) unless otherwise indicated. A patient suffering from arthritis urica, and not taking any medication, was treated with composition 2 containing 9% (w/w) glucosamine HCl all over the affected right foot by 4 successive treatments with an interval of 10 minutes.

[6] = test system: patient suffering from eczema (atopical) on the arm-bends; assay: Topical treatment of atopical eczema (Example 10); details: 8% (w/w) in composition 3; left arm; person
Procedure: Glucosamine or one or more of its derivatives was added in the appropriate amount to one of the following formulations. The compositions thus obtained were tested as described in the Examples. All percentages are by weight (w/w) unless otherwise indicated. A patient suffering from eczema (atopical) (person) on the arm-bends was treated with composition 3 containing 8% (w/w) glucosamine HCl on the left arm and composition 3 on the right arm. Itching decreased drastically after 15 seconds and lasted during 2 hours only on the left arm. From the above it follows that the therapeutical compositions of the invention can be used to alleviate itching and pain which result from a variety of causes. The relief is obtained very quickly and lasts for a considerable period of time.

[7] = test system: patient suffering from pain in the knee caused by a light collision; assay: Topical treatment of knee pain after a collision (Example 4); details: 10% (w/w) in formulation 3
Procedure: Glucosamine or one or more of its derivatives was added in the appropriate amount to one of the following formulations. The compositions thus obtained were tested as described in the Examples. All percentages are by weight (w/w) unless otherwise indicated. A patient suffering from pain in the knee caused by a light collision during a car accident was treated with formulation 3 containing 10% (w/w) glucosamine sulfate. Pain relief occurred after 50 seconds and lasted during 3 hours.

[8] = test system: patient suffering from tendinitis caused by practicing tennis; assay: Topical cream treatment of tendinitis caused by tennis (Example 2); details: 5% (w/w) in formulation 2 cream, applied on the skin during 2 minutes; person
Procedure: Glucosamine or one or more of its derivatives was added in the appropriate amount to one of the following formulations. The compositions thus obtained were tested as described in the Examples. All percentages are by weight (w/w) unless otherwise indicated. A patient suffering from tendinitis caused by practicing tennis was treated with formulation 2 containing glucosamine sulphate 5% (w/w). The cream was normally applied on the skin during 2 minutes to allow the penetration. Pain relief occurred already after 50 seconds and lasted for at least 2 hours. After 12 hours the same patient was treated with formulation 2 without glucosamine. There was no pain relief after similar application.

[9] = test system: patient suffering from herpes simplex type I infection around the nose showing extensive fissures; assay: Topical treatment of herpes simplex type I lesions around the nose (Example 3); details: 3% (w/w) in formulation 3
Procedure: Glucosamine or one or more of its derivatives was added in the appropriate amount to one of the following formulations. The compositions thus obtained were tested as described in the Examples. All percentages are by weight (w/w) unless otherwise indicated. A patient suffering from herpes simplex type I infection around the nose showing extensive fissures was treated with formulation 3 containing 3% glucosamine sulfate (w/w). Already after 30 seconds pain and itching relief occurred and lasted during 3 hours.

[10] = 8% w/w in water (formulation 1), sprayed into the mouth during 10 seconds, person
[11] = spray 9% w/w with 20% glycerol and 10% alcohol in water, same patient 12 hours later

Structure (SMILES): CC(=O)N[C@H]1C(O)O[C@H](CO)[C@@H](O)[C@@H]1O (stereo partly drawn) [N-acetyl-glucosamine, N-acetyl D-glucosamine]
- time to pain relief ([1]; 2 days after the onset of pain, person): 25 s
- pain after repeated treatment ([1]; after 5 successive treatments every 2 hours): pain was completely reduced
- duration of pain relief [2, 10]: at least 1,5 hour
- time to pain relief after application [2, 10]: 20 s

Structure (SMILES): Cl.N[C@H]1C(O)O[C@H](CO)[C@@H](O)[C@@H]1O (stereo partly drawn) [glucosamine HCl, D-glucosamine hydrochloride]
- relief of itching and pains [3]: always immediate relief of itching and pains
- time until itching decreased drastically ([4]; nose treated inside and outside): 50 s
- time until itching completely disappeared ([4]; right side of the forehead, person): 45 s
- duration of pain relief [5]: 4 h
- pain relief [5]: Gradually strong pain relief occurred
- duration of pain relief [2, 11]: at least 2 hours
- time to pain relief after application [2, 11]: 36 s
- duration of itching decrease [6]: 2 h
- time until itching decreased drastically [6]: 15 s

Structure (SMILES): N[C@H]1C(O)O[C@H](CO)[C@@H](O)[C@@H]1O.O=S(=O)(O)O (stereo partly drawn) [glucosamine sulfate, D-glucosamine sulfate]
- pain after repeated treatment ([7]; after 3 new successive treatments every 4 hours): the pain was completely gone
- duration of pain relief ([7]; person): 3 h
- time to pain relief ([7]; person): 50 s
- duration of pain relief [8]: at least 2 hours
- time to pain relief [8]: 50 s
- closure of fissures ([9]; after 5 hours): most of the fissures were closed
- duration of pain and itching relief ([9]; person): 3 h
- time to pain and itching relief ([9]; person): 30 s

Reference: US20010053771A1, “USE OF GLUCOSAMINE AND CLUCOSAMINE DERIVATIVES FOR QUICK ALLEVIATION OF ITCHING OR LOCALIZED PAIN” (priority 1997, published 2001)
